Data reported in patent US20250082592A1, “PHARMACEUTICAL COMPOSITION FOR PREVENTION, ALLEVIATION OR TREATMENT OF SARCOPENIA, CONTAINING ROR-alpha ACTIVATOR JC1-40” (SEOUL NATIONAL UNIVERSITY R & DB FOUNDATION, priority 2021, published 2025).

Tests used:
RORα = target: T1, RORα (Mus musculus, UniProt P51448); experiment: RORα dependency of TFAM expression, si-RORα transfection in C2C12 cells; format: cell-based; conditions: JC1-40 20 μM, 48 hours
T1 construct: endogenous in cells; host or cells: C2C12 cells
T1 sequence (P51448 1-523): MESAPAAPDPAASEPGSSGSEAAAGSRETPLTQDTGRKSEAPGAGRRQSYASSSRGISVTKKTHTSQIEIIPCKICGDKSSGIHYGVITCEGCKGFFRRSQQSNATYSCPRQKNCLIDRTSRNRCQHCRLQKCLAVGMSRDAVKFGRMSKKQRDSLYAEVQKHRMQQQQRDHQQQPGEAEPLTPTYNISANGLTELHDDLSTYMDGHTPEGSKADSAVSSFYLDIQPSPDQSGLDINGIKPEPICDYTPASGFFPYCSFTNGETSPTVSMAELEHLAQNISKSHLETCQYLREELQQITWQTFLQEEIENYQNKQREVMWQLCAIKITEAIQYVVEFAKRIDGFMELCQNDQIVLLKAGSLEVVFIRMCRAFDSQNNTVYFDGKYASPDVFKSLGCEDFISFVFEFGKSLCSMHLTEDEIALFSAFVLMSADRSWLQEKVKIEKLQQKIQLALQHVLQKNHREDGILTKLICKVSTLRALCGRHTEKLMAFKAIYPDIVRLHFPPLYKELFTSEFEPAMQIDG
Procedure: C2C12 cells (8×10^5 cells/dish) were seeded in a 60 mm dish and cultured overnight in DMEM (Dulbecco's modified Eagle's medium) containing 10% FBS (fetal bovine serum). The C2C12 cells were maintained at 37° C. in a humidified incubator with 5% CO2 and 95% air. After 24 hours of cultivation, si-RORα (250 pmoles) and si-GL3 (control group) were transfected into C2C12 cells using Lipofectamine 2000 (Thermo Fisher Scientific). After 24 hours post-transfection, the medium was switched to DMEM differentiation medium containing 2% horse serum, and treated with JC1-40 (20 μM) for 48 hours. The methods for RNA and protein extraction were as previously mentioned.

C2C12 cells [1] = experiment: mRNA expression of mitochondrial biosynthesis regulators (PGC-1α, NRF-1, NRF-2α, TFAM), real-time PCR; format: cell-based; conditions: JC1-40 20 μM, 48 hours
Procedure: C2C12 cells (8×10^5 cells/dish) were seeded in a 60 mm dish and cultured in DMEM (Dulbecco's modified Eagle's medium) containing 10% FBS (fetal bovine serum). The C2C12 cells were maintained at 37° C. in a humidified incubator with 5% CO2 and 95% air. After 48 hours of cultivation, the medium was changed to DMEM differentiation medium containing 2% horse serum, and treated with JC1-40 (20 μM) and solvent (control group). 48 hours after changing to the differentiation medium, RNA was extracted. The RNA extraction method is as described in Example 3. The results of the mRNA expression of mitochondrial biosynthesis regulators PGC-1α(Peroxisome proliferator-activated receptor gamma coactivator 1-alpha), NRF-1 (Nuclear Respiratory Factor 1), NRF-2a (Nuclear Respiratory Factor 2 alpha), and TFAM (Mitochondrial transcription factor A) induced by JC1-40 are shown in FIG. 4A.

C2C12 cells [2] = experiment: Protein expression of NRF1 and TFAM, Western blotting; format: cell-based; conditions: JC1-40 20 μM
Procedure: Using a method identical to the above, after treating C2C12 cells with the compound JC1-40, the expression of the mitochondrial biosynthesis regulators, NRF1 and TFAM proteins, was analyzed by Western blotting. Specific antibodies for NRF1 (Santa Cruz Biotechnology), TFAM (Santa Cruz Biotechnology), and α-tubulin (Millipore) were also used.

C2C12 cells [3] = experiment: Mitochondrial membrane potential, TMRM staining of C2C12 myotubes; format: cell-based; conditions: JC1-40 20 μM, 48 hours in differentiation medium, vs solvent control
Procedure: C2C12 cells (2×10^5 cells/well) were seeded in a 12-well culture plate and cultivated in DMEM (Dulbecco's modified Eagle's medium) medium containing 10% FBS (fetal bovine serum). The C2C12 cells were maintained at 37° C. in a humidified incubator with 5% CO2 and 95% air. After 48 hours of cultivation, the medium was changed to DMEM (Dulbecco's modified Eagle's medium) differentiation medium containing 2% horse serum, and the cells were treated with JC1-40 (20 μM) and solvent (control group). 48 hours after changing the differentiation medium, the mitochondria of the C2C12 cells were stained with Tetramethylrhodamine, Methyl Ester, and Perchlorate (TMRM) 600 nM. After 20 minutes, the medium was replaced with new medium containing TMRM 150 nM, and red fluorescence was observed after 10 minutes.

HeLa cells = experiment: Mitochondrial quantity, MitoTracker Green staining of HeLa cells; format: cell-based; conditions: JC1-40 5 μM and 50 μM, 24 hours, vs solvent control
Procedure: HeLa cells (4×10^4 cells/well) were seeded in a 12-well culture plate and cultivated overnight in DMEM (Dulbecco's modified Eagle's medium) medium containing 10% FBS (fetal bovine serum). The HeLa cells were maintained at 37° C. in a humidified incubator with 5% CO2 and 95% air. After 24 hours of cultivation, the medium was replaced and JC1-40 (5 μM, 50 μM), and solvent (control group) were treated for 24 hours.

TFAM promoter = TFAM promoter transcriptional activity, human TFAM-Luc reporter luciferase assay in C2C12 cells; format: cell-based; conditions: JC1-40 20 μM, 24 hours
Procedure: C2C12 cells (1×10^5 cells/well) were seeded in a 12-well culture plate and cultured overnight in DMEM containing 10% FBS. The C2C12 cells were maintained at 37° C. in a humidified incubator with 5% CO2 and 95% air. After 24 hours of cultivation, human TFAM-Luc reporter (100 ng) was transfected into C2C12 cells using PolyFect (QIAGEN). After 24 hours post-transfection, the medium was changed to DMEM differentiation medium containing 2% horse serum, and treated with JC1-40 (20 μM) and solvent (control group). 24 hours later, cell lysates were obtained and luciferase activity was analyzed and determined using an analytical luminescence luminometer.

C2C12 cells [4] = experiment: mRNA expression of mitochondrial constituent genes (SDHA, COX5A, MCAD), real-time PCR; format: cell-based; conditions: JC1-40 20 μM, 48 hours
Procedure: C2C12 cells (8×10^5 cells/dish) were seeded in a 60 mm dish and cultured in DMEM (Dulbecco's modified Eagle's medium) medium containing 10% FBS (fetal bovine serum). C2C12 cells were maintained at 37° C. in a humidified incubator with 5% CO2 and 95% air. After 48 hours of cultivation, the medium was changed to DMEM differentiation medium containing 2% horse serum, and the cells were treated with JC1-40 (20 μM) and solvent (control group). After 48 hours from the replacement of the differentiation medium, RNA was extracted. For extraction, the cells were dissolved with EASY BLUE (Intron, Korea), and isopropanol fractionation and ethanol precipitation were utilized. cDNA was synthesized from each RNA sample, and oligomers amplifying the cDNA of specific genes were utilized, monitoring the expression of R-actin as a control group. More specifically, an mRNA-M-MLV mixture was prepared using M-MLV reverse transcriptase (Invitrogen), and reverse transcription polymerase chain reaction was conducted using a thermal cycler. Subsequently, real-time polymerase chain reaction was performed using the ABI StepOnePlus Real-Time PCR system (Applied Biosystems).

[5] = system: male C57BL/6 mice, high-fat diet; experiment: High-fat diet-induced animal model, gastrocnemius tissue immunofluorescence; format: in vivo; conditions: JC1-40 5 mg/kg orally once a day for 5 weeks
Procedure: To confirm the correlation between the administration of JC1-40, an increase in mitochondrial biosynthesis, and the suppression of sarcopenia, experiments were conducted using a diet-induced animal model. Specifically, male C57BL/6 mice aged 5 weeks were acclimatized in a temperature and humidity-controlled environment for one week and were provided with a high-fat diet (fats derived from lard and soybean oil, 60 kcal % included, Research diets) for 12 weeks. From the 8th week of the diet, JC1-40 was orally administered once a day for 5 weeks at a concentration of 5 mg/kg (FIG. 6A). In detail, an amount of JC1-40 corresponding to the final concentration was measured and added to sterile water containing 0.5% carboxymethyl cellulose, and then uniformly suspended using a mortar and pestle to produce the drug. The dose for each mouse subject was taken and orally administered using a Sonde. The control group was administered sterile water containing 0.5% carboxymethyl cellulose in the same manner. After 12 weeks of diet were completed, the mice were anesthetized, the gastrocnemius tissue was extracted, and it was fixed using a 4% paraformaldehyde solution. The fixed tissue underwent washing, decalcification, and dehydration, and was ultimately made into a paraffin block using paraffin. The created paraffin block was cut into sections with a thickness of 3 μm, and after creating sections, protein expression was confirmed with fluorescence using specific antibodies for COX4 (Cytochrome c oxidase subunit 4, Santa Cruz Biotechnology) and TFAM (Mitochondrial transcription factor A, Santa Cruz Biotechnology).

Which “increase in TFAM expression with si-RORα” value (RORα; C2C12 cells transfected with si-RORα (250 pmoles)) does the source give for `CNC(=S)NCc1ccc(OCc2ccccc2)cc1` [JC1-40, 1-methyl-3-[(4-phenylmethoxyphenyl)methyl]thiourea] here?
Its value is “did not occur”.

What about the “protein expression of TFAM” value (RORα; C2C12 cells, si-GL3 control) of the same compound?
Its value is “increased”.

And the “mRNA expression of NRF-1” value (C2C12 cells [1])?
The value was “increased”.

What about the “mRNA expression of NRF-2” value (C2C12 cells [1]) of the same compound?
Its value is “increased”.

What about the “mRNA expression of PGC-1α” value (C2C12 cells [1]) of the same compound?
Its value is “increased”.

And the “mRNA expression of TFAM” value (C2C12 cells [1])?
Its value is “increased”.

And the “protein expression of NRF-1” value (C2C12 cells [2])?
The value was “increased”.

What about the “protein expression of TFAM” value (C2C12 cells [2]) of the same compound?
Its value is “increased”.

What about the “red fluorescence (TMRM), mitochondrial membrane potential” value (C2C12 cells [3]) of the same compound?
The value was “increased”.

What about the “green fluorescence (MitoTracker Green), quantity of mitochondria” value (HeLa cells) of the same compound?
The value was “increased in a concentration-dependent manner”.

What about the “transcriptional activity of the TFAM promoter (luciferase activity)” value (TFAM promoter) of the same compound?
Its value is “confirmed to be due to the transcriptional activity of the TFAM promoter”.

What about the “mRNA expression of COX5A” value (C2C12 cells [4]) of the same compound?
Its value is “increased”.

What about the “mRNA expression of MCAD” value (C2C12 cells [4]) of the same compound?
Its value is “increased”.

What about the “mRNA expression of SDHA” value (C2C12 cells [4]) of the same compound?
The value was “increased”.

And the “protein expression of COX4 in gastrocnemius tissue” value [5]?
Its value is “significantly increased”.

And the “protein expression of TFAM in gastrocnemius tissue” value [5]?
The value was “significantly increased”.

What about the “sarcopenia induced by the high-fat diet” value [5] of the same compound?
Its value is “significantly improved”.
